System: other proteins of A549 cells
Assay: TMT-based global proteomic profiling in A549 cells, other proteins
Format: cell-based, Homo sapiens
Details: A549 cells, 5 μM, 8 h
Protocol: A549 cells were seeded into 10 cm plates in 10 mL of media. […] Cells were lysed using a 5% SDS lysis buffer (100 mM Tris-HCl, pH 7.6) and were incubated at 95 °C for 4 min. Protein determination was performed using the Pierce BCA Gold protein assay. 100 μg of protein of each sample was reduced and alkylated, and excess iodoacetamide was quenched using 5 mM TCEP, 15 mM iodoacetamide, and 10 mM DTT, respectively. The protein was pelleted down using chloroform/methanol precipitation, and the resulting pellets were resolubilized in 40 mM HEPES pH 8.4. […] The Pierce BCA Gold protein assay was used to determine the peptide concentration. The peptides were labeled with TMTpro Label Reagents in a 1:4 ratio by mass (peptides/TMT reagents) for 1 h at RT. Five μL of 6% hydroxylamine was added to quench excess TMT reagent and incubated for 15 min at RT. Samples were pooled and lyophilized. The sample was subsequently fractionated on an Agilent 1200 series HPLC system (Agilent Technologies). 75 μg of the pooled sample was dissolved in solvent A (10 mM NH4HCO3, pH 8.4), injected onto, and eluted from an Agilent Eclipse Plus C18 2.1 × 150 mm 3.5 μm column (Agilent Technologies). The gradient was run from 2 to 90% solvent B (10 mM NH4HCO3, pH 8.4 final concentration, 20/80 water/acetonitrile v/v) in 30 min at a flow rate of 200 μL/min. Twelve fractions were made; every 30 s a fraction was collected in a vial, and the eluate of the next 30 s was collected in the next vial and so on until it loops back to the first vial (5 loops of 6 min each). Afterward, the samples were lyophilized.
2.2.07 (www.matrixscience.com) for protein identification. Mascot searches were with 10 ppm and 0.02 Da deviation for precursor and fragment mass, respectively. Enzyme specificity was set to trypsin. Up to two missed cleavages were allowed. Methionine oxidation and acetyl on protein N-terminus were set as variable modifications. Carbamidomethyl on Cys and TMTpro on Lys and N-terminus were set as fixed modifications. Protein FDR of 1% was set. Normalization was on total peptide amount. The values for each TMT channel were normalized to the average of the values for the DMSO samples for the same peptide, and these values were named FC. The log2 FC values of all replicates for the same master protein were averaged to give the “Average log2 FC”. A one-sample t test was performed against the null hypothesis of log2 FC = 0, and the resulting −log10p values were reported for each protein. The volcano plot was plotted using GraphPad Prism v.9.01.

## N#CN1CC[C@@H](C(=O)Nc2nc3c(s2)CN(C(=O)c2cc(-n4ccnn4)ccc2F)CC3)C1 [Compound 84, (R)-1-Cyano-N-(5-(2-fluoro-5-(1H-1,2,3-triazol-1-yl)benzoyl)-4,5,6,7-tetrahydrothiazolo[5,4-c]pyridin-2-yl)pyrrolidine-3-carboxamide]
  DOP1B protein level (total proteome profiling): downregulated

Reference: article PMC11129182, “Development of Inhibitors, Probes, and PROTAC Provides a Complete Toolbox to Study PARK7 in the Living Cell” (Journal of Medicinal Chemistry, 2024)
